The source made the active and inactive calls. The calls are words filed in the database; no cut-off is given here.

The values below come from ChEMBL document CHEMBL5036354, “New Insights into the Structure-Activity Relationship and Neuroprotective Profile of Benzodiazepinone Derivatives of Neurounina-1 as Modulators of the Na+/Ca2+ Exchanger Isoforms” (J Med Chem, 2021).

The test system of experiment [1] is BHK. Put plainly: Activation of dog NCX3 expressed in BHK cells assessed as reverse NCX current at 10 uM at + 60 mV holding potential by whole-cell patch clamp electrophysiology method. The experiment is classed as cell-based. The following applies: Canis lupus familiaris, filed as activator.
Experiment [2] concerns BHK. Put plainly: Activation of dog NCX3 expressed in BHK cells assessed as increase in Na+ free solution induced calcium level at 10 uM by fluo-2 AM dye based assay. The experiment is classed as cell-based. The following applies: Canis lupus familiaris, filed as activator.
Experiment [3] has as its system BHK. Put plainly: Activation of dog NCX1 expressed in BHK cells assessed as increase in Na+ free solution induced calcium level at 10 uM by fluo-2 AM dye based assay. In kind it is cell-based. Particulars: Canis lupus familiaris, filed as activator.
Experiment [4] relates to BHK. The experiment can be described thus: Activation of dog NCX1 expressed in BHK cells assessed as forward NCX current at 10 uM at -120 mV holding potential by whole-cell patch clamp electrophysiology method. The experiment is classed as cell-based. Particulars: Canis lupus familiaris, filed as activator.
For experiment [5], the system named is Cortical neurone. The experiment can be described thus: Neuroprotective activity against rat primary cortical neurons assessed as reduction in cell injury under hypoxic condition by MTT assay. In kind it is functional, cell-based. The following applies: dose 10.0 µM.
In experiment [6] the test system is BHK. Put plainly: Activation of dog NCX1 expressed in BHK cells assessed as reverese NCX current at 10 uM at +60 mV holding potential by whole-cell patch clamp electrophysiology method. The experiment is classed as cell-based. Particulars: Canis lupus familiaris, filed as activator.
The subject of experiment [7] is BHK. The experiment can be described thus: Activation of dog NCX3 expressed in BHK cells assessed as increase in Na+ free solution induced calcium level at 0.1 to 10 uM by fluo-4 AM dye based assay. The following applies: Canis lupus familiaris, filed as activator, dose 0.1-10 µM. In kind it is cell-based.
The subject of experiment [8] is BHK. Put plainly: Activation of dog NCX3 expressed in BHK cells assessed as forward NCX current at 10 uM at -120 mV holding potential by whole-cell patch clamp electrophysiology method. The experiment is classed as cell-based. Particulars: Canis lupus familiaris, filed as activator.
Experiment [9] relates to BHK. The experiment can be described thus: Activation of dog NCX1 expressed in BHK cells assessed as increase in Na+ free solution induced calcium level at 0.1 to 10 uM by fluo-4 AM dye based assay. The experiment is classed as cell-based. The following applies: Canis lupus familiaris, filed as activator, dose 0.1-10 µM.
A short description of experiment [10]: Inhibition of dog NCX1 expressed in BHK cells assessed as decrease in Na+ free solution induced calcium level by patch-clamp electrophysiology assay. The experiment is classed as cell-based. Particulars: Canis lupus familiaris.
The subject of experiment [11] is Cortical neurone. The experiment can be described thus: Neuroprotective activity against rat primary cortical neurons assessed as reduction in cell injury under RX and chemical hypoxia condition by MTT assay. In kind it is functional, cell-based. Particulars: dose 10.0 µM.
The test system of experiment [12] is Cortical neurone. Put plainly: Neuroprotective activity against rat primary cortical neurons assessed as reduction in cell injury at 10 uM preincubated with compound followed by compound washout and OGD and RX exposure by MTT assay. In kind it is functional, cell-based.
Experiment [13] deals with BHK. The experiment can be described thus: Inhibition of dog NCX1 expressed in BHK cells assessed as decrease in Na+ free solution induced calcium level at 0.01 to 10 uM by Fluo-4 AM dye based assay. In kind it is cell-based. The following applies: Canis lupus familiaris, dose 0.01-10 µM.
In experiment [14] the test system is BHK. The experiment can be described thus: Inhibition of dog NCX1 expressed in BHK cells assessed as decrease in Na+ free solution induced calcium level at 10 uM by Fluo-2 AM dye based assay. In kind it is cell-based. The following applies: Canis lupus familiaris.

As to `CC1CCCCN1C(=O)CN1C(=O)CN=C(c2ccccc2)c2cc([N+](=O)[O-])ccc21` (stereo not drawn), the result in the experiment with BHK [1], in the experiment with BHK [2], with BHK [3], in the experiment on BHK [4], with BHK [6] and in the experiment on BHK [7] was Active. The outcome in the experiment with BHK [8] and in the experiment with BHK [9] was Active. The result in the experiment on Cortical neurone [5] was inactive.

For the compound `O=C1CN=C(c2ccccc2Cl)c2cc([N+](=O)[O-])ccc2N1CN1CCCC1`, the outcome in the experiment on BHK [3], with Cortical neurone [12] and in the experiment on BHK [9] was Active. The Activity result with Cortical neurone [5] and in the experiment with Cortical neurone [11] was “Dose-Dependent Effect” each time. Also, in experiment [10], the half-inhibitory concentration (IC50) turned out to be 10 µM.

With `O=C1CN=C(c2ccccc2)c2cc([N+](=O)[O-])ccc2N1CCN1CCCC1`, in the experiment with Cortical neurone [5], the result was inactive. Further, the inhibition result with BHK [13] and in the experiment with BHK [14] was “Active” throughout.
